Test results published in patent US9107900B2, “Use of dronedarone for the preparation of a medicament for use in the prevention of cardiovascular hospitalization or of morality” (SANOFI, priority 2008, dated 2015).
Where a name gives a salt, the structure may show the parent alone.

System: patients having a history of atrial fibrillation or atrial flutter
Experiment: prospective, multinational, multicentre, double-blind clinical study versus placebo: cardiovascular hospitalizations and mortality
Assay type: in vivo, human
Method: The patients had to have a history of atrial fibrillation or flutter and/or could be in normal sinus rhythm or in atrial fibrillation or flutter at inclusion.
The patient recruitment was carried out by taking into account the following inclusion criteria:
• 1) One of the following risk factors had to be present: • age equal to or greater than 70 years, • hypertension (taking antihypertensives of at least two different classes), • diabetes, • history of cerebral stroke (transient ischemic event or completed cerebral stroke) or of systemic embolism, • left atrial diameter greater than or equal to 50 mm measured by echocardiography, • left ventricular ejection fraction less than 40%, measured by two-dimensional echography; or • age equal to or above 70, or even above 75, possibly combined with at least one of the risk factors below: • hypertension (taking antihypertensives of at least two different classes), • diabetes, • history of cerebral stroke (transient ischemic event or completed cerebral stroke) or of systemic embolism, • left atrial diameter greater than or equal to 50 mm measured by echocardiography, • left ventricular ejection fraction less than 40%, measured by two-dimensional echography; • 2) availability of an electrocardiogram carried out during the past 6 months in order to document the presence or the history of atrial fibrillation or flutter; • 3) availability of an electrocardiogram carried out during the past 6 months in order to document the presence or absence of normal sinus rhythm. […] Criteria Related to a Cardiac Condition: • Patients in permanent atrial fibrillation • Patients in unstable hemodynamic condition such as acute pulmonary edema within 12 hours prior to start of study medication; cardiogenic shock; treatment with IV pressor agents; patients on respirator; congestive heart failure of stage NYHA IV within the last 4 weeks; uncorrected, hemodynamically significant primary obstructive valvular disease; hemodynamically significant obstructive cardomyopathy; a cardiac operation or revascularization procedure within 4 weeks preceding randomization • Planned major non-cardiac or cardiac surgery or procedures including surgery for valvular heart disease, coronary artery bypass graft (CABG), percutaneous coronary intervention (PCI), or on urgent cardiac transplantation list • Acute myocarditis or constrictive pericarditis • Bradycardia<50 bpm and/or PR-interval>0.28 sec on the last 12-lead ECG. • Significant sinus node disease (documented pause of 3 seconds or more) or 2nd or 3rd degree atrioventricular block (AV-block) unless treated with a pacemaker. Criteria Related to Concomitant Medications:
Need of a concomitant medication that is prohibited in this trial, including the requirement for Vaughan Williams Class I and III anti-arrhythmic drugs, that would preclude the use of study drug during the planned study period, i.e. patients have to stop others antiarrhythmics such as Vaughan Williams Class I and III anti-arrhythmic drugs, for example amiodarone, flecamide, propafenone, quinidine, disopyramide, dofetilide, solatol.
• Plasma potassium<3.5 mmol/l (as anti-arrhythmic drugs can be arrhythmogenic in patients with hypokalemia, this must be corrected prior to randomization. • A calculated GFR at baseline<10 ml/min using the Cockroft Gault formula (GFR [ml/min]=(140−AGE [years]*WEIGHT [kilograms]*CONSTANT/CREATININE [μmol/L], where CONSTANT is […]).
Furthermore, the concomitant use of grapefruit juice and all potent inhibitors of CYP3A4 such as ketoconazole were prohibited.
Treatment was initiated using tablets containing either the placebo or an amount of dronedarone hydrochloride corresponding to 400 mg of dronedarone at a rate of twice a day with the morning and evening meal and more specifically at a rate of one tablet in the morning during or shortly after breakfast and one tablet in the evening during or shortly after dinner. […]

[1] = NYHA class III and LVEF below 0.35, stable, 400 mg BID, N = 24
[2] = NYHA class III congestive heart failure, stable hemodynamic condition, vs placebo
[3] = NYHA class III congestive heart failure, stable, vs placebo
[4] = all patients, treated group 2301 of 4628
[5] = all patients, treated group 2301 of 4628, 400 mg twice a day
[6] = congestive heart failure, LVEF below 0.35, stable, vs placebo
[7] = patients with a structural heart disease
[8] = patients with a structural heart disease, vs placebo
[9] = patients with coronary heart disease (668 treated patients)
[10] = patients with coronary heart disease, vs placebo
[11] = patients with permanent atrial fibrillation/flutter, vs placebo

With `CCCCc1oc2ccc(NS(C)(=O)=O)cc2c1C(=O)c1ccc(OCCCN(CCCC)CCCC)cc1` [dronedarone hydrochloride, 2-n-Butyl-3-[4-(3-di-n-butylaminopropoxy)benzoyl]-5-methylsulphonamidobenzofuran] the “HR (95% CI): cardiovascular hospitalization and death” value (Left atrium diameter >=50 mm (N 955), vs placebo) was 0.77 (0.63, 0.94), the “decrease of cardiovascular hospitalization and death” value (Left atrium diameter >=50 mm, vs placebo) was 23% and the “Endpoint's composition: Cardiovascular death” value [1] was 2. The “Endpoint's composition: Cardiovascular hospitalization” value [1] was 10, the “Endpoint's composition: Death from any cause” value [1] was 3 and the “Endpoint's composition: Non cardiovascular death” value [1] was 1. The “number of events: death” value (NYHA class III congestive heart failure, stable (91 treated patients)) was 12 events, the “number of events: cardiovascular hospitalization and death” value (NYHA class III congestive heart failure, stable hemodynamic condition (91 treated patients)) was 40 events and the “decrease of cardiovascular hospitalization or death” value [2] was 44%. For the same molecule, the “relative risk: cardiovascular hospitalization or death” value [2] was 0.56, the decrease of death [3] was 34% and the “relative risk: death” value [3] was 0.66. For the same molecule, the “HR (95% CI): cardiovascular hospitalization and death” value (Prior cerebrovascular accident or systemic embolism (N 616), vs placebo) was 0.80 (0.62, 1.02), the “decrease of cardiovascular hospitalization and death” value (Prior cerebrovascular accident or systemic embolism, vs placebo) was 20% and the “number of arrhythmic deaths (deaths from cardiac arrhythmia)” value [4] was 26 arrhythmic deaths. For the same molecule, the “number of cardiovascular deaths” value [4] was 65 cardiovascular deaths, the “number of deaths: mortality from any cause” value [4] was 116 deaths and the “number of events: cardiovascular hospitalizations” value [4] was 675 events. For the same molecule, the “number of events: cardiovascular hospitalizations and sudden death” value [4] was 684 events, the “number of events: cardiovascular hospitalizations for atrial fibrillation or supraventricular arrhythmia” value [4] was 296 events and the “number of events: cardiovascular hospitalizations for transient ischemic event or stroke” value [4] was 43 events. The “number of events: hospitalizations associated with class IV congestive heart failure” value [4] was 42 events, the “number of events: hospitalizations associated with congestive heart failure” value [4] was 112 events and the “number of sudden deaths” value [4] was 14 sudden deaths. The “number of events: cardiovascular hospitalizations and cardiovascular mortality” value [5] was 701 events, the “number of events: cardiovascular hospitalizations and mortality (principal judgement criterion)” value [5] was 734 events and the “number of events: death” value (congestive heart failure, LVEF below 0.35, stable (92 treated patients)) was 10 events. The “decrease of cardiovascular hospitalization or death” value [6] was 32%, the decrease of death [6] was 45% and the “relative risk: cardiovascular hospitalization or death” value [6] was 0.68. For the same molecule, the “relative risk: death” value [6] was 0.55, the “number of events: cardiovascular hospitalization and death” value (congestive heart failure, left ventricular ejection fraction below 0.35, stable hemodynamic condition (92 treated patients)) was 39 events and the “reduction in the risk of sudden death” value (patients not taking diuretics, vs placebo) was 34%. For the same molecule, the “number of events: cardiovascular hospitalizations and mortality” value (patients who developed permanent atrial fibrillation/flutter) was 29 events, the “number of events: cardiovascular death” value [7] was 48 events and the “number of events: cardiovascular hospitalization” value [7] was 452 events. For the same molecule, the “number of events: cardiovascular hospitalization or death” value [7] was 486 events, the “number of events: death” value [7] was 77 events and the “decrease of cardiovascular deaths” value [8] was 33%. The “decrease of cardiovascular hospitalization” value [8] was 24%, the “decrease of cardiovascular hospitalization or death” value [8] was 24% and the decrease of death [8] was 24%. For the same molecule, the “relative risk: cardiovascular death” value [8] was 0.67, the “relative risk: cardiovascular hospitalization” value [8] was 0.76 and the “relative risk: cardiovascular hospitalization or death” value [8] was 0.76. For the same molecule, the “relative risk: death” value [8] was 0.76, the “number of events: cardiovascular death” value [9] was 26 events and the “number of events: cardiovascular hospitalization” value [9] was 233 events. For the same molecule, the “number of events: cardiovascular hospitalization or death” value [9] was 252 events, the “number of events: death” value [9] was 39 events and the “decrease of cardiovascular death” value [10] was 40%. For the same molecule, the “decrease of cardiovascular hospitalization” value [10] was 26%, the “decrease of cardiovascular hospitalization or death” value [10] was 27% and the decrease of death [10] was 36%. The “relative risk: cardiovascular death” value [10] was 0.602, the “relative risk: cardiovascular hospitalization” value [10] was 0.740 and the “relative risk: cardiovascular hospitalization or death” value [10] was 0.733. For the same molecule, the “relative risk: death” value [10] was 0.643, the “reduction in cardiovascular hospitalizations and mortality” value [11] was 33% and the “relative risk: cardiovascular hospitalizations and mortality” value [11] was 0.67. The “patients who developed permanent atrial fibrillation/flutter” value (treated group 2301 of 4628, p<0.001 vs placebo (294)) was 178 patients, the “decrease of cardiovascular hospitalization associated with class IV congestive heart failure” value (vs placebo, all patients) was 22% and the “decrease of cardiovascular hospitalization associated with congestive heart failure” value (vs placebo, all patients) was 14.5%. For the same molecule, the “reduction in cardiovascular hospitalizations” value (vs placebo, all patients) was 25.5%, the “reduction in cardiovascular hospitalizations and cardiovascular deaths” value (vs placebo, all patients) was 25.5% and the “reduction in cardiovascular hospitalizations and sudden deaths” value (vs placebo, all patients) was 25.5%. The “reduction in cardiovascular hospitalizations for atrial fibrillation” value (vs placebo, all patients) was 38.4%, the “reduction in cardiovascular hospitalizations for transient ischemic event or stroke” value (vs placebo, all patients) was 34% and the “reduction in cardiovascular mortality” value (vs placebo, all patients) was 30.2%. The “reduction in sudden death” value (vs placebo, all patients) was 59.5%, the “reduction in the risk of a first cardiovascular hospitalization not due to a supraventricular arrhythmia” value (vs placebo, all patients) was 14.5% and the “reduction of arrhythmic death” value (vs placebo, all patients) was 45%. The “reduction of death (any cause)” value (vs placebo, all patients) was 15.6%, the “relative risk: arrhythmic death” value (vs placebo, all patients) was 0.55 and the “relative risk: cardiovascular hospitalizations” value (vs placebo, all patients) was 0.745. The “relative risk: cardiovascular hospitalizations and cardiovascular deaths” value (vs placebo, all patients) was 0.745, the “relative risk: cardiovascular hospitalizations and sudden deaths” value (vs placebo, all patients) was 0.743 and the “relative risk: cardiovascular hospitalizations for atrial fibrillation or supraventricular arrhythmia” value (vs placebo, all patients) was 0.616. The “relative risk: cardiovascular hospitalizations for transient ischemic event or stroke” value (vs placebo, all patients) was 0.66, the “relative risk: cardiovascular mortality” value (vs placebo, all patients) was 0.698 and the “relative risk: hospitalizations associated with class IV congestive heart failure” value (vs placebo, all patients) was 0.78. The “relative risk: hospitalizations associated with congestive heart failure” value (vs placebo, all patients) was 0.855, the “relative risk: mortality from any cause” value (vs placebo, all patients) was 0.844 and the “relative risk: sudden death” value (vs placebo, all patients) was 0.405. The “relative risk: cardiovascular hospitalizations and deaths” value (vs placebo, all patients, 400 mg twice a day) was 0.758 and the “reduction in cardiovascular hospitalizations and deaths” value (vs placebo, all patients, x=1-relative risk) was 24.2%.
